Experimental data taken from patent US12527325B2, “Pesticidally active diazine-amide compounds” (SYNGENTA CROP PROTECTION AG, priority 2019, dated 2026).

Key:
Assay type in all cases: in vivo
Euschistus heros = experiment: Example B2: Euschistus heros (Neotropical Brown Stink Bug); details: 120 h, application rate of 200 ppm, sprayed soybean leaves, N2 nymphs, 5 days after infestation, read-out: control in at least one of the two categories (mortality or growth inhibition)
Procedure: Example B2: Euschistus heros (Neotropical Brown Stink Bug)
Soybean leaves on agar in 24-well microtiter plates were sprayed with aqueous test solutions prepared from 10′000 ppm DMSO stock solutions. After drying the leaves were infested with N2 nymphs. The samples were assessed for mortality and growth inhibition in comparison to untreated samples 5 days after infestation.

Plutella xylostella [1] = experiment: Example B5: Plutella xylostella (Diamond Back Moth); details: 192 h, application rate of 200 ppm, 24-well artificial diet, eggs, 8 days after infestation, read-out: control in at least one of the two categories (mortality or growth inhibition)
Procedure: Example B5: Plutella xylostella (Diamond Back Moth)
24-well microtiter plates with artificial diet were treated with aqueous test solutions prepared from 10′000 ppm DMSO stock solutions by pipetting. After drying, Plutella eggs were pipetted through a plastic stencil onto a gel blotting paper and the plate was closed with it. The samples were assessed for mortality and growth inhibition in comparison to untreated samples 8 days after infestation.

Plutella xylostella [2] = experiment: Example B12: Plutella xylostella (Diamondback Moth), 96-well artificial diet; details: 216 h, application rate of 500 ppm, eggs, 9 days after infestation
Procedure: Example B12: Plutella xylostella (Diamondback Moth)
96-well microtiter plates containing artificial diet were treated with aqueous test solutions, prepared from 10′000 ppm DMSO stock solutions, by a liquid handling robot. After drying, eggs (˜30 per well) were infested onto a netted lid which was suspended above the diet. The eggs hatch and L1 larvae move down to the diet. The samples were assessed for mortality 9 days after infestation.

Diabrotica balteata = experiment: Example B1: Diabrotica balteata (Corn Root Worm); details: 96 h, application rate of 200 ppm, sprayed maize sprouts, L2 larvae, 4 days after infestation, read-out: control in at least one of the two categories (mortality or growth inhibition)
Procedure: Example B1: Diabrotica balteata (Corn Root Worm)
Maize sprouts placed onto an agar layer in 24-well microtiter plates were treated with aqueous test solutions prepared from 10′000 ppm DMSO stock solutions by spraying. After drying, the plates were infested with L2 larvae (6 to 10 per well). The samples were assessed for mortality and growth inhibition in comparison to untreated samples 4 days after infestation.

Spodoptera littoralis = experiment: Example B9: Spodoptera littoralis (Egyptian Cotton Leaf Worm), cotton leaf disc spray; details: foliar, 72 h, application rate of 200 ppm, sprayed cotton leaf discs, L1 larvae, 3 days after infestation, read-out: control in at least one of the three categories (mortality, anti-feedant or growth inhibition)
Chilo suppressalis = experiment: Example B4: Chilo suppressalis (Striped Rice Stemborer); details: 144 h, application rate of 200 ppm, artificial diet, L2 larvae, 6 days after infestation, read-out: control in at least one of the three categories (mortality, anti-feedant or growth inhibition)
Procedure: Example B4: Chilo suppressalis (Striped Rice Stemborer)
24-well microtiter plates with artificial diet were treated with aqueous test solutions prepared from 10′000 ppm DMSO stock solutions by pipetting. After drying, the plates were infested with L2 larvae (6-8 per well). The samples were assessed for mortality, anti-feeding effect, and growth inhibition in comparison to untreated samples 6 days after infestation. Control of Chilo suppressalis by a test sample is given when at least one of the categories mortality, anti-feedant effect, and growth inhibition is higher than the untreated sample.

Myzus persicae = experiment: Example B8: Myzus persicae (Green Peach Aphid): Intrinsic Activity; details: 120 h, test rate of 12 ppm, 24-well sucrose solution under Parafilm, 5 days after infestation
Source text: Example B8: Myzus persicae (Green Peach Aphid): Intrinsic Activity
Test compounds prepared from 10′000 ppm DMSO stock solutions were applied by pipette into 24-well microtiter plates and mixed with sucrose solution. The plates were closed with a stretched Parafilm. A plastic stencil with 24 holes was placed onto the plate and infested pea seedlings were placed directly on the Parafilm. The infested plate was closed with a gel blotting paper and another plastic stencil and then turned upside down. The samples were assessed for mortality 5 days after infestation.

CC(NC(=O)c1cc(C(F)(F)F)cc(C(F)(F)C2CC2)c1)c1nccnc1-c1ccc(Br)cn1 (stereo not drawn) [P21, N-[1-[3-(5-bromo-2-pyridyl)pyrazin-2-yl]ethyl]-3-[cyclopropyl(difluoro)methyl]-5-(trifluoromethyl) benzamide]
≥ 80%: percent control (mortality or growth inhibition) at 200 ppm (Euschistus heros) | percent control (mortality or growth inhibition) at 200 ppm (Plutella xylostella [1]) | mortality at 500 ppm (Plutella xylostella [2])

CC(NC(=O)c1cc(C(F)(F)F)nc(C2(C#N)CC2)c1)c1nccnc1-c1ncc(C2CC2)cn1 (stereo not drawn) [P36, 2-(1-cyanocyclopropyl)-N-[1-[3-(5-cyclopropylpyrimidin-2-yl)pyrazin-2-yl]ethyl]-6-(trifluoromethyl)pyridine-4-carboxamide]
≥ 80%: percent control (mortality or growth inhibition) at 200 ppm (Plutella xylostella [1]) | percent control (mortality or growth inhibition) at 200 ppm (Diabrotica balteata) | percent control (mortality, anti-feedant effect or growth inhibition) at 200 ppm (Spodoptera littoralis) | percent control (mortality, anti-feedant effect or growth inhibition) at 200 ppm (Chilo suppressalis) | mortality at 500 ppm (Plutella xylostella [2])

CC(NC(=O)c1cc(C2CC2)cc(C(F)(F)F)c1)c1nccnc1-c1ncc(C2CC2)cn1 (stereo not drawn) [P35, 3-cyclopropyl-N-[1-[3-(5-cyclopropylpyrimidin-2-yl)pyrazin-2-yl]ethyl]-5-(trifluoromethyl)benzamide]
≥ 80%: percent control (mortality or growth inhibition) at 200 ppm (Plutella xylostella [1]) | percent control (mortality or growth inhibition) at 200 ppm (Diabrotica balteata) | percent control (mortality, anti-feedant effect or growth inhibition) at 200 ppm (Spodoptera littoralis) | percent control (mortality, anti-feedant effect or growth inhibition) at 200 ppm (Chilo suppressalis) | mortality at 500 ppm (Plutella xylostella [2])

CC(NC(=O)c1cc(C(F)(F)F)nc(C2(C#N)CC2)c1)c1nccnc1-c1ccc(Cl)cn1 (stereo not drawn) [P16, N-[1-[3-(5-chloro-2-pyridyl)pyrazin-2-yl]ethyl]-2-(1-cyanocyclopropyl)-6-(trifluoromethyl)pyridine-4-carboxamide]
≥ 80%: percent control (mortality or growth inhibition) at 200 ppm (Plutella xylostella [1]) | percent control (mortality or growth inhibition) at 200 ppm (Diabrotica balteata) | percent control (mortality, anti-feedant effect or growth inhibition) at 200 ppm (Spodoptera littoralis) | percent control (mortality, anti-feedant effect or growth inhibition) at 200 ppm (Chilo suppressalis) | mortality at 500 ppm (Plutella xylostella [2])

CC(NC(=O)c1cc(Cl)nc(C(F)(F)F)c1)c1nccnc1-c1ncccn1 (stereo not drawn) [P1, 2-chloro-N-[1-(3-pyrimidin-2-ylpyrazin-2-yl)ethyl]-6-(trifluoromethyl)pyridine-4-carboxamide]
≥ 80%: percent control (mortality or growth inhibition) at 200 ppm (Euschistus heros) | percent control (mortality or growth inhibition) at 200 ppm (Plutella xylostella [1]) | percent control (mortality or growth inhibition) at 200 ppm (Diabrotica balteata) | percent control (mortality, anti-feedant effect or growth inhibition) at 200 ppm (Chilo suppressalis)

CC(NC(=O)c1cc(C(F)(F)F)nc(C2(C#N)CC2)c1)c1nccnc1-c1ccc(Br)cn1 (stereo not drawn) [P28, N-[1-[3-(5-bromo-2-pyridyl)pyrazin-2-yl]ethyl]-2-(1-cyanocyclopropyl)-6-(trifluoromethyl)pyridine-4-carboxamide]
≥ 80%: percent control (mortality or growth inhibition) at 200 ppm (Plutella xylostella [1]) | percent control (mortality or growth inhibition) at 200 ppm (Diabrotica balteata) | percent control (mortality, anti-feedant effect or growth inhibition) at 200 ppm (Spodoptera littoralis) | percent control (mortality, anti-feedant effect or growth inhibition) at 200 ppm (Chilo suppressalis) | mortality at 500 ppm (Plutella xylostella [2])

Cc1cnc(-c2nccnc2C(C)NC(=O)c2cc(C(F)(F)F)cc(C(C)(C)C#N)c2)nc1 (stereo not drawn) [P48, 3-(1-cyano-1-methyl-ethyl)-N-[1-[3-(5-methylpyrimidin-2-yl)pyrazin-2-yl]ethyl]-5-(trifluoromethyl)benzamide]
≥ 80%: percent control (mortality or growth inhibition) at 200 ppm (Euschistus heros) | percent control (mortality or growth inhibition) at 200 ppm (Plutella xylostella [1]) | percent control (mortality, anti-feedant effect or growth inhibition) at 200 ppm (Spodoptera littoralis) | percent control (mortality, anti-feedant effect or growth inhibition) at 200 ppm (Chilo suppressalis)

CC(NC(=O)c1cc(C2CC2)cc(C(F)(F)F)c1)c1nccnc1-c1ncccn1 (stereo not drawn) [P41, 3-cyclopropyl-N-[1-(3-pyrimidin-2-ylpyrazin-2-yl)ethyl]-5-(trifluoromethyl)benzamide]
≥ 80%: percent control (mortality or growth inhibition) at 200 ppm (Plutella xylostella [1]) | percent control (mortality or growth inhibition) at 200 ppm (Diabrotica balteata) | percent control (mortality, anti-feedant effect or growth inhibition) at 200 ppm (Spodoptera littoralis) | percent control (mortality, anti-feedant effect or growth inhibition) at 200 ppm (Chilo suppressalis) | mortality at 12 ppm (Myzus persicae)

CC(NC(=O)c1cc(C(F)(F)F)cc(C(F)(F)C2CC2)c1)c1nccnc1-c1ccccn1 (stereo not drawn) [P20, 3-[cyclopropyl (difluoro)methyl]-N-[1-[3-(2-pyridyl)pyrazin-2-yl]ethyl]-5-(trifluoromethyl) benzamide]
≥ 80%: percent control (mortality or growth inhibition) at 200 ppm (Plutella xylostella [1]) | percent control (mortality or growth inhibition) at 200 ppm (Diabrotica balteata) | percent control (mortality, anti-feedant effect or growth inhibition) at 200 ppm (Spodoptera littoralis) | percent control (mortality, anti-feedant effect or growth inhibition) at 200 ppm (Chilo suppressalis) | mortality at 500 ppm (Plutella xylostella [2])

CC(NC(=O)c1cc(C(F)(F)F)cc(C2(C#N)CC2)c1)c1nccnc1-c1ccc(Br)cn1 (stereo not drawn) [P24, N-[1-[3-(5-bromo-2-pyridyl)pyrazin-2-yl]ethyl]-3-(1-cyanocyclopropyl)-5-(trifluoromethyl)benzamide]
≥ 80%: percent control (mortality or growth inhibition) at 200 ppm (Plutella xylostella [1]) | percent control (mortality or growth inhibition) at 200 ppm (Diabrotica balteata) | percent control (mortality, anti-feedant effect or growth inhibition) at 200 ppm (Spodoptera littoralis) | percent control (mortality, anti-feedant effect or growth inhibition) at 200 ppm (Chilo suppressalis) | mortality at 500 ppm (Plutella xylostella [2])

CC(NC(=O)c1cc(C(F)(F)F)cc(C2(C#N)CC2)c1)c1nccnc1-c1ccc(Cl)cn1 (stereo not drawn) [P17, N-[1-[3-(5-chloro-2-pyridyl)pyrazin-2-yl]ethyl]-3-(1-cyanocyclopropyl)-5-(trifluoromethyl)benzamide]
≥ 80%: percent control (mortality or growth inhibition) at 200 ppm (Plutella xylostella [1]) | percent control (mortality or growth inhibition) at 200 ppm (Diabrotica balteata) | percent control (mortality, anti-feedant effect or growth inhibition) at 200 ppm (Spodoptera littoralis) | percent control (mortality, anti-feedant effect or growth inhibition) at 200 ppm (Chilo suppressalis) | mortality at 500 ppm (Plutella xylostella [2])

CC(NC(=O)c1cc(C(F)(F)F)cc(C2(C#N)CC2)c1)c1nccnc1-c1ncc(C2CC2)cn1 (stereo not drawn) [P3, 3-(1-cyanocyclopropyl)-N-[1-[3-(5-cyclopropylpyrimidin-2-yl)pyrazin-2-yl]ethyl]-5-(trifluoromethyl) benzamide]
≥ 80%: percent control (mortality or growth inhibition) at 200 ppm (Euschistus heros) | percent control (mortality or growth inhibition) at 200 ppm (Plutella xylostella [1]) | percent control (mortality, anti-feedant effect or growth inhibition) at 200 ppm (Spodoptera littoralis) | percent control (mortality, anti-feedant effect or growth inhibition) at 200 ppm (Chilo suppressalis)

CC(NC(=O)c1cc(C2CC2C(F)(F)F)cc(C(F)(F)F)c1)c1nccnc1-c1ncccn1 (stereo not drawn) [P37, N-[1-(3-pyrimidin-2-ylpyrazin-2-yl)ethyl]-3-(trifluoromethyl)-5-[2-(trifluoromethyl)cyclopropyl] benzamide]
≥ 80%: percent control (mortality or growth inhibition) at 200 ppm (Plutella xylostella [1]) | percent control (mortality or growth inhibition) at 200 ppm (Diabrotica balteata) | percent control (mortality, anti-feedant effect or growth inhibition) at 200 ppm (Spodoptera littoralis) | percent control (mortality, anti-feedant effect or growth inhibition) at 200 ppm (Chilo suppressalis) | mortality at 500 ppm (Plutella xylostella [2]) | mortality at 12 ppm (Myzus persicae)

C[C@H](NC(=O)c1cc(C(F)(F)F)cc(C(F)(F)C2CC2)c1)c1nccnc1-c1ccc(Br)cn1 [P42, N-[(1S)-1-[3-(5-bromo-2-pyridyl)pyrazin-2-yl]ethyl]-3-[cyclopropyl(difluoro)methyl]-5-(trifluoromethyl)benzamide]
≥ 80%: percent control (mortality or growth inhibition) at 200 ppm (Plutella xylostella [1]) | percent control (mortality or growth inhibition) at 200 ppm (Diabrotica balteata) | percent control (mortality, anti-feedant effect or growth inhibition) at 200 ppm (Spodoptera littoralis) | percent control (mortality, anti-feedant effect or growth inhibition) at 200 ppm (Chilo suppressalis) | mortality at 500 ppm (Plutella xylostella [2])

Cc1cnc(-c2nccnc2C(C)NC(=O)c2cc(C(F)(F)F)nc(C3(C#N)CC3)c2)nc1 (stereo not drawn) [P2, 2-(1-cyanocyclopropyl)-N-[1-[3-(5-methylpyrimidin-2-yl)pyrazin-2-yl]ethyl]-6-(trifluoromethyl)pyridine-4-carboxamide]
≥ 80%: percent control (mortality or growth inhibition) at 200 ppm (Euschistus heros) | percent control (mortality or growth inhibition) at 200 ppm (Plutella xylostella [1]) | percent control (mortality, anti-feedant effect or growth inhibition) at 200 ppm (Spodoptera littoralis) | percent control (mortality, anti-feedant effect or growth inhibition) at 200 ppm (Chilo suppressalis)

CC(NC(=O)c1cc(C2CC2)cc(C(F)(F)F)c1)c1nccnc1-c1ncc(OC(F)F)cn1 (stereo not drawn) [P34, 3-cyclopropyl-N-[1-[3-[5-(difluoromethoxy)pyrimidin-2-yl]pyrazin-2-yl]ethyl]-5-(trifluoromethyl)benzamide]
≥ 80%: percent control (mortality or growth inhibition) at 200 ppm (Plutella xylostella [1]) | percent control (mortality or growth inhibition) at 200 ppm (Diabrotica balteata) | percent control (mortality, anti-feedant effect or growth inhibition) at 200 ppm (Spodoptera littoralis) | percent control (mortality, anti-feedant effect or growth inhibition) at 200 ppm (Chilo suppressalis) | mortality at 500 ppm (Plutella xylostella [2])
